Test system: 292921-168-R tumor spheroid viability
Experiment: Anticancer human tumor 292921-168-R patient-derived pancreatic carcinoma cell line growth inhibition
Settings: spheroids with HUVEC and MSC; for IC50: curve of first compound; for viability, T/C: stronger effect = lower value
How it was run: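 Complex spheroids of malignant cells with endothelial cells and mesenchymal stem cells; agents alone or combined, from near clinical Cmax (or 10 microM if unknown) down in half-log steps, 0.25% DMSO final.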

[1] = second compound 0.003 µM, first compound 0.0316 µM
[2] = second compound 0.003 µM, first compound 0.1 µM
[3] = second compound 0.003 µM, first compound 0.316 µM
[4] = second compound 0.003 µM, first compound 1 µM
[5] = second compound 0.003 µM, first compound 3.16 µM
[6] = second compound 0.003 µM, first compound 10 µM
[7] = second compound 0.00949 µM, first compound 0.0316 µM
[8] = second compound 0.00949 µM, first compound 0.1 µM
[9] = second compound 0.00949 µM, first compound 0.316 µM
[10] = second compound 0.00949 µM, first compound 1 µM
[11] = second compound 0.00949 µM, first compound 3.16 µM
[12] = second compound 0.00949 µM, first compound 10 µM
[13] = second compound 0.03 µM, first compound 0.0316 µM
[14] = second compound 0.03 µM, first compound 0.1 µM
[15] = second compound 0.03 µM, first compound 0.316 µM
[16] = second compound 0.03 µM, first compound 1 µM
[17] = second compound 0.03 µM, first compound 3.16 µM
[18] = second compound 0.03 µM, first compound 10 µM
[19] = second compound 0.0949 µM, first compound 0.0316 µM
[20] = second compound 0.0949 µM, first compound 0.1 µM
[21] = second compound 0.0949 µM, first compound 0.316 µM
[22] = second compound 0.0949 µM, first compound 1 µM
[23] = second compound 0.0949 µM, first compound 3.16 µM
[24] = second compound 0.0949 µM, first compound 10 µM
[25] = second compound 0.3 µM, first compound 0.0316 µM
[26] = second compound 0.3 µM, first compound 0.1 µM
[27] = second compound 0.3 µM, first compound 0.316 µM
[28] = second compound 0.3 µM, first compound 1 µM
[29] = second compound 0.3 µM, first compound 3.16 µM
[30] = second compound 0.3 µM, first compound 10 µM
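Also: spheroids exposed to compounds for 7 days.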

SMILES | IC50 (second compound 0.003 µM) [nM] | IC50 (second compound 0.00949 µM) [nM] | IC50 (second compound 0.03 µM) [nM] | IC50 (second compound 0.0949 µM) [nM] | IC50 (second compound 0.3 µM) [nM] | viability, T/C [1] [%] | viability, T/C [2] [%] | viability, T/C [3] [%] | viability, T/C [4] [%] | viability, T/C [5] [%] | viability, T/C [6] [%] | viability, T/C [7] [%] | viability, T/C [8] [%] | viability, T/C [9] [%] | viability, T/C [10] [%] | viability, T/C [11] [%] | viability, T/C [12] [%] | viability, T/C [13] [%] | viability, T/C [14] [%] | viability, T/C [15] [%] | further results
CC(C)n1c(=O)n(C)c2cnc3cc(F)c(-c4ccc(OCCCN5CCCCC5)nc4)cc3c21 + CC[C@@]1(O)C(=O)OCc2c1cc1n(c2=O)Cc2cc3c(CN(C)C)c(O)ccc3nc2-1 | < 31.6 | < 31.6 | < 31.6 | < 31.6 | < 31.6 | 45.7 | 42.4 | 44.9 | 42.3 | 41.4 | 20.4 | 25.4 | 23.7 | 22.3 | 25.2 | 24.4 | 18.7 | 20.2 | 22.4 | 20.4 | viability, T/C [16]: 20.4%; viability, T/C [17]: 23.2%; viability, T/C [18]: 16.7%; viability, T/C [19]: 13.2%; viability, T/C [20]: 14.7%; viability, T/C [21]: 13.7%; viability, T/C [22]: 14.8%; viability, T/C [23]: 16.8%; viability, T/C [24]: 14.8%; viability, T/C [25]: 4.72%; viability, T/C [26]: 4.71%; viability, T/C [27]: 5.4%; viability, T/C [28]: 6.25%; viability, T/C [29]: 8.92%; viability, T/C [30]: 10.4%
CC1COCCN1c1cc(-c2ccnn2C)c2ccnc(-c3ccn[nH]3)c2n1 (stereo not given) + CC[C@@]1(O)C(=O)OCc2c1cc1n(c2=O)Cc2cc3c(CN(C)C)c(O)ccc3nc2-1 | < 31.6 | < 31.6 | < 31.6 | < 31.6 | < 31.6 | 22.8 | 13.6 | 10 | 12.2 | 14.4 | 15.4 | 11.6 | 9.97 | 10 | 11.8 | 13.8 | 15 | 8.44 | 7.98 | 9.15 | viability, T/C [16]: 10.8%; viability, T/C [17]: 12.5%; viability, T/C [18]: 14.3%; viability, T/C [19]: 4.99%; viability, T/C [20]: 4.72%; viability, T/C [21]: 5.08%; viability, T/C [22]: 8.1%; viability, T/C [23]: 10.9%; viability, T/C [24]: 12.6%; viability, T/C [25]: 2.78%; viability, T/C [26]: 2.83%; viability, T/C [27]: 3.27%; viability, T/C [28]: 4.98%; viability, T/C [29]: 6.98%; viability, T/C [30]: 9.23%
COc1cc(C)[nH]c(=O)c1CN1CCc2c(Cl)cc(C(OC)C3COC3)c(Cl)c2C1=O (stereo not given) + CC[C@@]1(O)C(=O)OCc2c1cc1n(c2=O)Cc2cc3c(CN(C)C)c(O)ccc3nc2-1 | > 10000 | > 10000 | 394 | < 31.6 | < 31.6 | 108 | 102 | 85 | 90.7 | 88.7 | 82.8 | 92.6 | 94.1 | 71.3 | 71.5 | 81.3 | 63.3 | 50.6 | 59.1 | 53.4 | viability, T/C [16]: 39.2%; viability, T/C [17]: 40.2%; viability, T/C [18]: 19.8%; viability, T/C [19]: 13.1%; viability, T/C [20]: 15.6%; viability, T/C [21]: 12.9%; viability, T/C [22]: 9.42%; viability, T/C [23]: 10.1%; viability, T/C [24]: 7.35%; viability, T/C [25]: 4.43%; viability, T/C [26]: 4.26%; viability, T/C [27]: 3.82%; viability, T/C [28]: 2.93%; viability, T/C [29]: 3.15%; viability, T/C [30]: 3.34%
COc1ccc([C@@H](O)c2cc(-c3ncnc4cc(N5CCOCC5)ccc34)c(F)cc2Cl)nn1 + CC[C@@]1(O)C(=O)OCc2c1cc1n(c2=O)Cc2cc3c(CN(C)C)c(O)ccc3nc2-1 | 1350 | 974 | < 31.6 | < 31.6 | < 31.6 | 102 | 94.4 | 77.8 | 55.3 | 34.8 | 20.8 | 77.5 | 74.5 | 71.9 | 45.6 | 32.9 | 17.9 | 41.8 | 38.7 | 34.5 | viability, T/C [16]: 25.8%; viability, T/C [17]: 21.5%; viability, T/C [18]: 17.1%; viability, T/C [19]: 10.8%; viability, T/C [20]: 12%; viability, T/C [21]: 12.5%; viability, T/C [22]: 13.2%; viability, T/C [23]: 14.5%; viability, T/C [24]: 13.8%; viability, T/C [25]: 3.98%; viability, T/C [26]: 3.78%; viability, T/C [27]: 4.06%; viability, T/C [28]: 4.72%; viability, T/C [29]: 6.62%; viability, T/C [30]: 8.28%
[2H]c1nc(C)nc([2H])c1-c1cc(NC[C@@H](C)c2cccc3c(C(=O)NC)ccnc23)ncn1 + CC[C@@]1(O)C(=O)OCc2c1cc1n(c2=O)Cc2cc3c(CN(C)C)c(O)ccc3nc2-1 | > 10000 | > 10000 | < 31.6 | < 31.6 | < 31.6 | 101 | 87.8 | 96.9 | 102 | 93.8 | 86.9 | 83.3 | 81 | 77.7 | 76.9 | 79.8 | 70.9 | 49.2 | 35.9 | 41.5 | viability, T/C [16]: 37.4%; viability, T/C [17]: 37.4%; viability, T/C [18]: 23%; viability, T/C [19]: 12.1%; viability, T/C [20]: 13.4%; viability, T/C [21]: 12.2%; viability, T/C [22]: 12.6%; viability, T/C [23]: 9.08%; viability, T/C [24]: 8.57%; viability, T/C [25]: 3.57%; viability, T/C [26]: 4.5%; viability, T/C [27]: 3.67%; viability, T/C [28]: 3.37%; viability, T/C [29]: 3.59%; viability, T/C [30]: 2.83%
